Laboratory results: US20260078122A1, “INDAZOLE COMPOUNDS AS PKMYT1 KINASE INHIBITORS” (Hoffmann-La Roche Inc., priority 2023, published 2026)

What follows are compounds tested against T1, recombinant human Myt1 (full length PKMYT1) (Homo sapiens, UniProt Q99640) (assay: ADP-Glo assay (Myt1 kinase activity)).
T1 sequence (Q99640 1-499): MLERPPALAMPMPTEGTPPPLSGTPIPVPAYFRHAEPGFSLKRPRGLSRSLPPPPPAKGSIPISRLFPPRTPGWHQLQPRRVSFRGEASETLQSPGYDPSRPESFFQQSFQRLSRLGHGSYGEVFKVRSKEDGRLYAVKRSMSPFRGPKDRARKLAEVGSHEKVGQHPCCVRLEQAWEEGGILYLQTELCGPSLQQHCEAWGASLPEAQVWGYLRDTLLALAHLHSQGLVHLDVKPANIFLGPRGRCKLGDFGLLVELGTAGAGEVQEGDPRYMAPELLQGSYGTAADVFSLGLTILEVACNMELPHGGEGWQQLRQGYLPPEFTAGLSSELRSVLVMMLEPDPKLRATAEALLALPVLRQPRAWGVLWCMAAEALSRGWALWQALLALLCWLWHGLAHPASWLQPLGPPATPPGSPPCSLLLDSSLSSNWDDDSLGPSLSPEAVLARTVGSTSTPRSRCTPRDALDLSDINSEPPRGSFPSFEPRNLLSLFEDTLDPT

Row | SMILES | IC50 [nM]
1 | Cc1c(C2CC2)nc2c(-c3ccc(F)c4[nH]ncc34)c(N)c(=O)[nH]c2c1Cl [Example 109, 3-Amino-8-chloro-6-cyclopropyl-4-(7-fluoro-1H-indazol-4-yl)-7-methyl-1H-1,5-naphthyridin-2-one] | < 10
2 | Cc1c(OC2CCC2)cnc2c(-c3ccc(F)c4[nH]ncc34)c(N)c(=O)[nH]c12 [Example 139, 3-Amino-7-(cyclobutoxy)-4-(7-fluoro-1H-indazol-4-yl)-8-methyl-1H-1,5-naphthyridin-2-one] | 13.2
3 | Nc1c(-c2cccc3[nH]ncc23)c2ncc(C3CC3)cc2[nH]c1=O [Example 34, 3-Amino-7-cyclopropyl-4-(1H-indazol-4-yl)-1H-1,5-naphthyridin-2-one] | 19.3
4 | Cc1cc2[nH]c(=O)c(N)c(-c3ccc(F)c4[nH]ncc34)c2nc1OC(C)C [Example 064, 3-Amino-4-(7-fluoro-1H-indazol-4-yl)-6-isopropoxy-7-methyl-1H-1,5-naphthyridin-2-one] | < 10
5 | Cc1c(OC(C)C)cnc2c(-c3ccc(F)c4[nH]ncc34)c(N)c(=O)[nH]c12 [Example 138, 3-Amino-4-(7-fluoro-1H-indazol-4-yl)-7-isopropoxy-8-methyl-1H-1,5-naphthyridin-2-one] | 14.2
6 | Cc1cc(C#CC(C)(C)O)nc2c(-c3ccc(F)c4[nH]ncc34)c(N)c(=O)[nH]c12 [Example 148, 3-Amino-4-(7-fluoro-1H-indazol-4-yl)-6-(3-hydroxy-3-methyl-but-1-ynyl)-8-methyl-1H-1,5-naphthyridin-2-one] | < 10
7 | Cc1cc2[nH]c(=O)c(N)c(-c3ccc(F)c4[nH]ncc34)c2nc1N1CCNCC1 [Example 44, 3-Amino-4-(7-fluoro-1H-indazol-4-yl)-7-methyl-6-piperazin-1-yl-1H-1,5-naphthyridin-2-one] | < 10
8 | Cc1cc2[nH]c(=O)c(N)c(-c3ccc(F)c4[nH]ncc34)c2nc1-c1nccs1 [Example 153, 3-Amino-4-(7-fluoro-1H-indazol-4-yl)-7-methyl-6-thiazol-2-yl-1H-1,5-naphthyridin-2-one] | 11.8
9 | Cc1nc2c(-c3ccc(F)c4[nH]ncc34)c(N)c(=O)[nH]c2c(C)c1Cl [Example 56, 3-Amino-7-chloro-4-(7-fluoro-1H-indazol-4-yl)-6,8-dimethyl-1H-1,5-naphthyridin-2-one] | < 10
10 | Cc1cc2[nH]c(=O)c(N)c(-c3ccc(Cl)c4[nH]ncc34)c2nc1C [Example 159, 3-Amino-4-(7-chloro-1H-indazol-4-yl)-6,7-dimethyl-1H-1,5-naphthyridin-2-one] | < 10
11 | Cc1c(C2(C)CC2)cnc2c(-c3ccc(F)c4[nH]ncc34)c(N)c(=O)[nH]c12 [Example 129, 3-Amino-4-(7-fluoro-1H-indazol-4-yl)-8-methyl-7-(1-methylcyclopropyl)-1H-1,5-naphthyridin-2-one] | 12.8
12 | COc1c(C)cnc2c(-c3ccc(F)c4[nH]ncc34)c(N)c(=O)[nH]c12 [Example 51, 3-Amino-4-(7-fluoro-1H-indazol-4-yl)-8-methoxy-7-methyl-1H-1,5-naphthyridin-2-one] | 17.9
13 | Cc1c(C2CC2)nc2c(-c3ccc(F)c4[nH]ncc34)c(N)c(=O)[nH]c2c1C1CC1 [Example 114, 3-Amino-6,8-dicyclopropyl-4-(7-fluoro-1H-indazol-4-yl)-7-methyl-1H-1,5-naphthyridin-2-one] | 13.6
14 | Cc1cc2[nH]c(=O)c(N)c(-c3ccc(F)c4[nH]ncc34)c2nc1N1CC2(COC2)C1 [Example 26, 3-Amino-4-(7-fluoro-1H-indazol-4-yl)-7-methyl-6-(2-oxa-6-azaspiro[3.3]heptan-6-yl)-1H-1,5-naphthyridin-2-one] | < 10
15 | Cc1cc2[nH]c(=O)c(N)c(-c3ccc(F)c4[nH]ncc34)c2nc1O[C@H]1C[C@H](F)C1 [Example 080, trans-3-Amino-6-(3-fluorocyclobutoxy)-4-(7-fluoro-1H-indazol-4-yl)-7-methyl-1H-1,5-naphthyridin-2-one] | 21.1
16 | Cc1ncc(OCC2CC2)c2c(-c3ccc(F)c4[nH]ncc34)c(N)c(=O)[nH]c12 [Example 191, 3-Amino-5-(cyclopropylmethoxy)-4-(7-fluoro-1H-indazol-4-yl)-8-methyl-1H-1,7-naphthyridin-2-one] | 15.7
17 | Cc1cc2[nH]c(=O)c(N)c(-c3ccc(F)c4[nH]ncc34)c2nc1Br [Example 21, 3-Amino-6-bromo-4-(7-fluoro-1H-indazol-4-yl)-7-methyl-1H-1,5-naphthyridin-2-one] | 10.3
18 | Cc1cc2[nH]c(=O)c(N)c(-c3ccc(F)c4[nH]ncc34)c2cc1C [Example 48, 3-Amino-4-(7-fluoro-1H-indazol-4-yl)-6,7-dimethyl-1H-quinolin-2-one] | 27.1

The remaining lines, values ahead:

Row | IC50 [nM] | SMILES
19 | 22.6 | Nc1c(-c2ccc(F)c3[nH]ncc23)c2c(OCc3ccccc3)cnc(Cl)c2[nH]c1=O [Example 180, 3-Amino-5-benzyloxy-8-chloro-4-(7-fluoro-1H-indazol-4-yl)-1H-1,7-naphthyridin-2-one]
20 | 11.6 | Cc1cc2[nH]c(=O)c(N)c(-c3ccc(F)c4[nH]ncc34)c2nc1OCC(F)(F)F [Example 066, 3-Amino-4-(7-fluoro-1H-indazol-4-yl)-7-methyl-6-(2,2,2-trifluoroethoxy)-1H-1,5-naphthyridin-2-one]
21 | 15.6 | CCc1nc2c(-c3ccc(F)c4[nH]ncc34)c(N)c(=O)[nH]c2cc1C [Example 157, 3-Amino-6-ethyl-4-(7-fluoro-1H-indazol-4-yl)-7-methyl-1H-1,5-naphthyridin-2-one]
22 | < 10 | Cc1c(C2CCCC2)cnc2c(-c3ccc(F)c4[nH]ncc34)c(N)c(=O)[nH]c12 [Example 126, 3-Amino-7-cyclopentyl-4-(7-fluoro-1H-indazol-4-yl)-8-methyl-1H-1,5-naphthyridin-2-one]
23 | < 10 | C#Cc1nc2c(-c3ccc(F)c4[nH]ncc34)c(N)c(=O)[nH]c2c(Cl)c1C [Example 111, 3-Amino-8-chloro-6-ethynyl-4-(7-fluoro-1H-indazol-4-yl)-7-methyl-1H-1,5-naphthyridin-2-one]
24 | < 10 | Cc1c(C2CC2F)cnc2c(-c3ccc(F)c4[nH]ncc34)c(N)c(=O)[nH]c12 (stereo not drawn) [Example 132, 3-Amino-7-(2-fluorocyclopropyl)-4-(7-fluoro-1H-indazol-4-yl)-8-methyl-1H-1,5-naphthyridin-2-one]
25 | < 10 | Cc1cc2[nH]c(=O)c(N)c(-c3ccc(F)c4[nH]ncc34)c2nc1OCC1CC1 [Example 47, 3-Amino-6-(cyclopropylmethoxy)-4-(7-fluoro-1H-indazol-4-yl)-7-methyl-1H-1,5-naphthyridin-2-one]
26 | 9.7 | Cc1cc2[nH]c(=O)c(N)c(-c3ccc(F)c4[nH]ncc34)c2nc1OCC12CC(C1)C2 [Example 063, 3-Amino-6-(1-bicyclo[1.1.1]pentanylmethoxy)-4-(7-fluoro-1H-indazol-4-yl)-7-methyl-1H-1,5-naphthyridin-2-one]
27 | < 10 | Cc1cc(Cl)c2c(-c3ccc(F)c4[nH]ncc34)c(N)c(=O)[nH]c2c1 [Example 103, 3-Amino-5-chloro-4-(7-fluoro-1H-indazol-4-yl)-7-methyl-1H-quinolin-2-one]
28 | 22.6 | COc1cnc2c(-c3ccc(F)c4[nH]ncc34)c(N)c(=O)[nH]c2c1 [Example 6, 3-Amino-4-(7-fluoro-1H-indazol-4-yl)-7-methoxy-1H-1,5-naphthyridin-2-one]
29 | 44.6 | Nc1c(-c2ccc(F)c3[nH]ncc23)c2ncc(-c3ccc(F)cn3)cc2[nH]c1=O [Example 14]
30 | 18.5 | Cc1cnc2c(-c3ccc(F)c4[nH]ncc34)c(N)c(=O)[nH]c2c1C(F)F [Example 145, 3-Amino-8-(difluoromethyl)-4-(7-fluoro-1H-indazol-4-yl)-7-methyl-1H-1,5-naphthyridin-2-one]
31 | < 10 | Cc1c(C2CC2)nc(Cl)c2c(-c3ccc(F)c4[nH]ncc34)c(N)c(=O)[nH]c12 [Example 162, 3-Amino-5-chloro-7-cyclopropyl-4-(7-fluoro-1H-indazol-4-yl)-8-methyl-1H-1,6-naphthyridin-2-one]
32 | < 10 | Cc1nc2c(-c3ccc(F)c4[nH]ncc34)c(N)c(=O)[nH]c2cc1Cl [Example 52, 3-Amino-7-chloro-4-(7-fluoro-1H-indazol-4-yl)-6-methyl-1H-1,5-naphthyridin-2-one]
33 | 14.5 | Cc1cc2[nH]c(=O)c(N)c(-c3ccc(F)c4[nH]ncc34)c2cc1C1CCN(CC(F)(F)F)CC1 [Example 106, 3-Amino-4-(7-fluoro-1H-indazol-4-yl)-7-methyl-6-[1-(2,2,2-trifluoroethyl)-4-piperidyl]-1H-quinolin-2-one]
34 | 10.7 | Cc1cc2[nH]c(=O)c(N)c(-c3ccc(F)c4[nH]ncc34)c2nc1NC(C)C [Example 23, 3-Amino-4-(7-fluoro-1H-indazol-4-yl)-6-(isopropylamino)-7-methyl-1H-1,5-naphthyridin-2-one]
35 | < 10 | Cc1c(Cl)nc2c(-c3ccc(F)c4[nH]ncc34)c(N)c(=O)[nH]c2c1C [Example 49, 3-Amino-6-chloro-4-(7-fluoro-1H-indazol-4-yl)-7,8-dimethyl-1H-1,5-naphthyridin-2-one]
36 | 10.7 | Cc1cnc2c(-c3ccc(F)c4[nH]ncc34)c(N)c(=O)[nH]c2c1Cl [Example 53, 3-Amino-8-chloro-4-(7-fluoro-1H-indazol-4-yl)-7-methyl-1H-1,5-naphthyridin-2-one]
